For one assay, the system named is HeLa cells. The experiment in a line: Latex bead invasion assay (InIB-coated beads). The class given is cell-based, human. The following applies: HeLa cells preincubated with peptide. Here is the method: Control beads or beads coated with InIB (see experimental procedures) were incubated with HeLa cells. Cells were pretreated with a CD44v6 peptide having SEQ ID NO: 2 or a control peptide for one hour as indicated. Extracellular beads bind to a Cy3-labelled antibody and are stained red in immunofluorescence microscopy. In phase contrast microscopy both extracellular and intracellular beads are detected. The number of internalized beads (black) was counted in approximately a thousand cells and shown as intracellular beads/100 cells in the graph. The results are expressed as means±standard deviation of three independent experiments.
In1B-dependent c-Met and Erk phosphorylation was measured in HeLa cells transiently transfected with a control vector or a vector coding for a truncated version of ezrin deprived of the actin binding domain (ezΔABD or DN Ezrin). In these cells also the uptake of latex beads was determined as described in FIG. 4.
Coating of the beads with InIB was performed as is known in the art. Briefly, 25 μl of latex beads (4×10^8 beads/ml, Dynabeads M-450, Dynal, Invitrogen, Karlsruhe, Germany) were coated with goat anti-mouse IgG and then incubated with 0.5 ml of hybridoma cell supernatant of monoclonal anti-InIB antibody for 2 h at 4° C. […]

Assay [1] concerns Erk. In words: InIB-induced Erk phosphorylation in HeLa and HT29 cells. The following applies: peptide 100 ng/ml 30 min before InIB 1 nM 5 min. The class given is cell-based, human. The method, then: (§1) HeLa cells were induced with InIB (A) at a concentration of 1 nM for 5 min at 37° C. Pretreatment with a control peptide or a CD44v6 14-mer peptide having SEQ ID NO: 2 at a concentration of 100 ng/ml for 30 min was performed when indicated. Phosphorylation of c-Met and of Erk were measured as described in experimental procedures. The same experiments were performed with the HT29 cells (B). (C) HeLa cells were transfected with two different siRNA (v6-1 and v6-2, described in experimental procedures) to downregulate CD44v6 and with a control siRNA. 48 h after transfection, cells were starved for additional 24 h. InIB-induced c-Met and Erk phosphorylation were measured. The expression of CD44v6 was detected by Western Blot analysis. The numbers reflect-fold induction as determined by densitometric scanning (Image J program).
(§2) The human colon adenocarcinoma cell lines HT29 and the human cervix carcinoma cell line HeLa (American tissue culture collection, ATCC; Wesel, Germany. Accession no: CCL-2) were grown in Dulbecco's modified Eagle's medium (DMEM; Invitrogen, Karlsruhe, Germany) supplemented with 10% fetal calf serum (FCS; PAA Cölbe, Germany). The rat pancreatic carcinoma cell line BSp73AS and its transfectant BSp73ASs6 were grown in RMPI (Invitrogen, Karlsruhe, Germany) plus 10% FCS.
(§3) In all experiments cells were induced with 1 nM of InIB where indicated. […]

The subject of assay [2] is c-Met. The experiment in a line: InIB-induced c-Met phosphorylation in HeLa and HT29 cells. The class given is cell-based, human. As to conditions: peptide 100 ng/ml 30 min before InIB 1 nM 5 min. The method, then:
as §1, §2, §3

For the next assay, the system named is HT29 cells. In words: Scattering assay (InIB-induced). The following applies: InIB 1 nM 48 h, antibody 100 μg/ml or peptide 100 ng/ml. The class given is cell-based, human. The method, then: Scattering of HT29 cells was determined after treatment with InIB alone or together with a control peptide or a CD44v6 peptide or antibody as indicated. The magnification used was ×20.
HT29 cells were seeded at a concentration of 3×10^5 cells/well in a 6-well plate. They were then incubated with InIB (1 nM) for 48 h at 37° C. For the blocking experiments, CD44 anti-v6 antibodies (Biwa; 100 μg/ml) or a CD44v6 peptide (100 ng/ml) were added before addition of InIB. Pictures were taken using a phase contrast microscope 48 h after induction.

For assay [3], the system named is c-Met. The experiment in a line: InIB-induced c-Met phosphorylation in ASs6 cells. The class given is cell-based, rat. The following applies: peptide 100 ng/ml before InIB. The method, then: (§4) AS cells or ASs6 cells were induced with InIB as indicated (A) and ASs6 cells in addition with a CD44v6 14-mer peptide having SEQ ID NO: 1 or an unrelated (control) peptide (B). Erk phosphorylation (A,B) or c-Met phosphorylation (B) was determined. In (C), HeLa cells were induced either with HGF or InIB for 5 min at 37° C. CD44v6 was immunoprecipitated from the lysates and a Western Blot was performed using CD44v6 and c-Met antibodies as indicated. For control, an IgG antibody was used. The numbers reflect-fold induction as determined by densitometric scanning (Image J program).
as §2
(§5) In all experiments cells were induced with 1 nM of InIB where indicated. Induction was performed for 5 min at 37° C. Blocking experiments were performed by incubating the CD44v6 14-mer peptide having for example SEQ ID NO: 2 or SEQ ID NO: 1 (100 ng/ml) or the control peptide (100 ng/ml) for 30 min at 37° C. prior to induction with InIB. […]

For assay [4], the system named is Erk. The experiment in a line: InIB-induced Erk phosphorylation in ASs6 cells. The class given is cell-based, rat. As to conditions: peptide 100 ng/ml before InIB. The method, then:
as §4, §2, §5

Regarding “KEQWFGNRWHEGYR (listed as Homo sapiens) [human CD44v6 14-mer peptide]”, in the assay on HeLa cells, the “entry of InIB-coated beads” value is “drastic decrease” and the “entry of InIB-coated beads blocked” value is ~100%. The “downstream signaling monitored by Erk activation” value in the assay on Erk [1] is recorded as “inhibited”. Further, in the assay with c-Met [2], the “InIB-induced activation of c-Met” value is reported as “completely abrogated”. Besides, the InIB-induced scattering result with HT29 cells is recorded as “blocked”.
Consider “CD44v6 peptide having SEQ ID NO:1: CD44v6 14-mer peptide having SEQ ID NO: 1, used on rat ASs6 cells (KEKWFENEWQGKNP; listed as Rattus norvegicus)”, for which, in the assay with c-Met [3], the “InIB-induced c-Met phosphorylation” value was “abrogated”. The “InIB-induced Erk phosphorylation” value in the assay with Erk [4] was “abrogated”.

The values above are taken from US8933017B2, “CD44V6 peptides as inhibitors of bacterial infections” (Karlsruher Institut fur Technologie, priority 2009, dated 2015).
